Assay: AUC in mouse at 300 mg/kg, po
Type: ADME, organism-based
Design: dose 300 mg/kg, route oral
Conditions: plasma

AUC: 981 µM·h
SMILES: CCNC(=O)Nc1nc2cc(-c3cccnc3)c(=O)n(C(C)C)c2s1
